Laboratory results from PubChem BioAssay (NCI).
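Tested at 5 concentrations; 48 h exposure; 96-well plates; endpoints linearly interpolated, else capped at highest concentration. GI50: concentration for 50% inhibition of growth. Definition used: TGI = concentration required for complete inhibition of growth.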

Tests used:
Test in all cases: NCI tumour cell line growth inhibition, 48 h
[1] = test system: SNB-75 CNS
[2] = test system: NCI-H23 lung
[3] = test system: DMS 273 small cell lung
[4] = test system: DMS 114 small cell lung
[5] = test system: OVCAR-8 ovarian
[6] = test system: HCT-116 colon
[7] = test system: UACC-62 melanoma
[8] = test system: KM12 colon
[9] = test system: DLD-1 colon
[10] = test system: OVCAR-4 ovarian
[11] = test system: SK-MEL-2 melanoma
[12] = test system: NCI-H522 lung
[13] = test system: LOX IMVI melanoma
[14] = test system: CAKI-1 renal
[15] = test system: HCC-2998 colon
[16] = test system: NCI-H226 lung
[17] = test system: COLO 205 colon
[18] = test system: SK-MEL-5 melanoma
[19] = test system: HOP-92 NSCLC
[20] = test system: SK-OV-3 ovarian
[21] = test system: A549 NSCLC
[22] = test system: MOLT-4 leukemia
[23] = test system: UO-31 renal
[24] = test system: KM20L2 colon
[25] = test system: CCRF-CEM leukemia
[26] = test system: P388 leukemia
[27] = test system: IGROV1 ovarian
[28] = test system: U251 CNS
[29] = test system: EKVX NSCLC
[30] = test system: RPMI-8226 leukemia
[31] = test system: SNB-78 CNS
[32] = test system: HOP-18 NSCLC
[33] = test system: HL-60(TB) leukemia
[34] = test system: SN12C renal
[35] = test system: OVCAR-3 ovarian
[36] = test system: SK-MEL-28 melanoma
[37] = test system: NCI/ADR-RES ovarian
[38] = test system: OVCAR-5 ovarian
[39] = test system: SW-620 colon
[40] = test system: SF-268 CNS
[41] = test system: RXF 393 renal
[42] = test system: K-562 leukemia
[43] = test system: P388/ADR leukemia
[44] = test system: UACC-257 melanoma
[45] = test system: MCF7 breast
[46] = test system: A498 renal
[47] = test system: HCT-15 colon
[48] = test system: M19-MEL melanoma
[49] = test system: HOP-62 NSCLC
[50] = test system: SF-539 CNS
[51] = test system: SN12K1 renal
[52] = test system: SNB-19 CNS
[53] = test system: NCI-H460 lung
[54] = test system: HT29 colon
[55] = test system: MALME-3M melanoma
[56] = test system: SF-295 CNS
[57] = test system: LXFL 529 NSCLC
[58] = test system: SR leukemia
[59] = test system: RXF-631 renal
[60] = test system: ACHN renal
[61] = test system: M14 melanoma
[62] = test system: 786-0 renal
[63] = test system: TK-10 renal
[64] = test system: XF 498 CNS

Molecule `Cc1ncc(CO)c(C=NCCCCCCN=Cc2c(CO)cnc(C)c2[O-])c1[O-].[Cu+2]` has a TGI [1] of over 100 µM, a TGI [2] of over 100 µM and a GI50 [3] of over 66.9 µM. It also gave a TGI [3] of over 100 µM, a GI50 [4] of over 47.7 µM and a TGI [4] of over 77.6 µM. For the same molecule, the TGI [5] was over 100 µM, the TGI [6] was over 100 µM and the TGI [7] was over 100 µM. It also gave a TGI [8] of over 100 µM, a GI50 [9] of over 82.9 µM and a TGI [9] of over 100 µM. The TGI [10] was over 100 µM, the TGI [11] was over 100 µM and the TGI [12] was over 100 µM. It also gave a TGI [13] of over 94.3 µM, a TGI [14] of over 100 µM and a TGI [15] of over 100 µM. It also gave a TGI [16] of over 100 µM, a TGI [17] of over 100 µM and a TGI [18] of over 79.1 µM. For the same molecule, the TGI [19] was over 87.9 µM, the TGI [20] was over 100 µM and the TGI [21] was over 100 µM. The TGI [22] was over 100 µM, the TGI [23] was over 100 µM and the GI50 [24] was over 83.9 µM. It also gave a TGI [24] of over 100 µM, a TGI [25] of over 31.6 µM and a GI50 [26] of 18.9 µM. The TGI [26] was 94.2 µM, the TGI [27] was over 100 µM and the TGI [28] was over 70.9 µM. For the same molecule, the TGI [29] was over 100 µM, the TGI [30] was over 100 µM and the GI50 [31] was 41.3 µM. For the same molecule, the TGI [31] was over 100 µM, the GI50 [32] was over 100 µM and the TGI [32] was over 100 µM. For the same molecule, the TGI [33] was over 100 µM, the TGI [34] was over 100 µM and the TGI [35] was over 100 µM. It also gave a TGI [36] of over 100 µM, a TGI [37] of over 100 µM and a TGI [38] of over 100 µM. It also gave a TGI [39] of over 100 µM, a TGI [40] of over 100 µM and a TGI [41] of over 100 µM. For the same molecule, the TGI [42] was over 100 µM, the GI50 [43] was 25.7 µM and the TGI [43] was over 100 µM. For the same molecule, the TGI [44] was over 100 µM, the TGI [45] was over 100 µM and the TGI [46] was over 100 µM. For the same molecule, the TGI [47] was over 100 µM, the GI50 [48] was 28.6 µM and the TGI [48] was over 31.6 µM. The TGI [49] was over 100 µM, the TGI [50] was over 100 µM and the GI50 [51] was over 100 µM. The TGI [51] was over 100 µM, the TGI [52] was over 100 µM and the TGI [53] was over 100 µM. The TGI [54] was over 100 µM, the TGI [55] was over 100 µM and the TGI [56] was over 100 µM.

Molecule `CC(C)(C)c1cc(Cc2ccc([N+](C)(C)C)cc2)c(O)c(C(C)(C)C)c1` has a TGI [57] of 27.1 µM, a TGI [1] of 22.1 µM and a TGI [2] of 36.1 µM. The TGI [3] was 22.2 µM, the TGI [4] was 20.2 µM and the TGI [5] was 35.9 µM. The TGI [58] was 29.8 µM, the TGI [6] was 31.5 µM and the TGI [7] was 27.9 µM. The TGI [59] was over 100 µM, the TGI [8] was 29.6 µM and the TGI [9] was over 100 µM. For the same molecule, the TGI [10] was over 100 µM, the TGI [11] was 30.2 µM and the TGI [13] was 30.6 µM. The TGI [60] was over 100 µM, the TGI [14] was over 100 µM and the TGI [15] was 29.9 µM. For the same molecule, the TGI [18] was 22.9 µM, the TGI [20] was 95.1 µM and the TGI [21] was over 100 µM. It also gave a TGI [22] of 26.1 µM, a TGI [23] of over 100 µM and a TGI [24] of 74.8 µM. It also gave a TGI [25] of 29.1 µM, a TGI [27] of 28.1 µM and a TGI [28] of 25.4 µM. For the same molecule, the TGI [29] was over 100 µM, the TGI [61] was 40.9 µM and the TGI [30] was 31.9 µM. For the same molecule, the TGI [31] was 31.3 µM, the TGI [32] was 47.3 µM and the TGI [33] was 8.27 µM. It also gave a TGI [62] of 57.7 µM, a TGI [34] of 28.7 µM and a TGI [36] of 25 µM. It also gave a TGI [38] of 59.7 µM, a TGI [39] of 59.2 µM and a TGI [40] of 28.5 µM. For the same molecule, the TGI [41] was 38.4 µM, the TGI [63] was 78.4 µM and the TGI [64] was 25.9 µM. It also gave a TGI [42] of 28.1 µM, a TGI [44] of 31.7 µM and a TGI [46] of over 100 µM. For the same molecule, the TGI [47] was over 100 µM, the TGI [48] was 26.6 µM and the TGI [49] was 33.5 µM. It also gave a TGI [50] of 30.5 µM, a TGI [52] of 25.9 µM and a TGI [53] of 37.9 µM. The TGI [54] was 32.7 µM, the TGI [55] was 34.2 µM and the TGI [56] was 67.5 µM.
